Measured values taken from US9586942B2, “Aminotetraline and aminoindane derivatives, pharmaceutical compositions containing them, and their use in therapy” (AbbVie Deutschland GmbH & Co. KG, priority 2013, dated 2017).

Columns and labels:
[1] = Metabolic stability in human liver microsomes; assay type: in vitro ADME; settings: human liver microsomes 0.25 mg protein/ml, 0.5 μM test substance, NADPH, 37° C., pH 7.4; scaled microsomal clearance; examples marked * tested as fumarate salts
Procedure: Metabolic stability was determined as follows:
0.5 μM test substance was preincubated together with human liver microsomes (0.25 mg of microsomal protein/ml) in 0.05 M potassium phosphate buffer of pH 7.4 in microtiter plates at 37° C. for 5 min. The reaction was started by adding NADPH (1.0 mM). After 0, 5, 10, 15, 20 and 30 min the reaction was stopped and cooled with twice the amount of quench solution consisting of acetonitrile/methanol 1:1, and containing 0.2 μM carbutamide. The samples were frozen until analyzed. The remaining concentration of undegraded test substance was determined by LC MSMS. The half-life (T1/2) was determined from the gradient of the signal of test substance/unit time plot, allowing to calculate the half-life of the test substance, assuming first order kinetics, from the decrease in the concentration of the compound with time. The microsomal clearance (mClint) was calculated as follows: mClint=((ln(2)/t 1/2)/Microsomal Protein Concentration (mg/ml))*1000, leading to the unit of uLmin/mg. The scaled clearance (mClin_scaled) was calculated as mCLint_scaled=m CLint*(Microsomal Yield (mg/kg BW))/1000000*60, leading to the units L/hr/kg. The Microsomal Yield is defined by the specifics of the used microsomes. Calculations were modified from references: Di, The Society for Biomolecular Screening, 2003, 453-462; Obach, DMD, 1999 vol 27. N 11, 1350-1359.

[2] = molecular target: human GlyT1c transporter (Homo sapiens (Human), UniProt P48067); experiment: Radioligand binding assay using recombinant CHO cell membranes expressing human GlyT1; settings: examples marked * tested as fumarate salts, read-out: radioligand binding Kiapp
Procedure: 2. Radioligand binding assays using recombinant CHO cell membranes expressing human GlyT1:
Radioligand binding to human GlyT1c transporter-expressing membranes was determined as described in Mezler et al., Molecular Pharmacology 74:1705-1715, 2008.

human GlyT1c transporter, sequence (P48067 whole entry): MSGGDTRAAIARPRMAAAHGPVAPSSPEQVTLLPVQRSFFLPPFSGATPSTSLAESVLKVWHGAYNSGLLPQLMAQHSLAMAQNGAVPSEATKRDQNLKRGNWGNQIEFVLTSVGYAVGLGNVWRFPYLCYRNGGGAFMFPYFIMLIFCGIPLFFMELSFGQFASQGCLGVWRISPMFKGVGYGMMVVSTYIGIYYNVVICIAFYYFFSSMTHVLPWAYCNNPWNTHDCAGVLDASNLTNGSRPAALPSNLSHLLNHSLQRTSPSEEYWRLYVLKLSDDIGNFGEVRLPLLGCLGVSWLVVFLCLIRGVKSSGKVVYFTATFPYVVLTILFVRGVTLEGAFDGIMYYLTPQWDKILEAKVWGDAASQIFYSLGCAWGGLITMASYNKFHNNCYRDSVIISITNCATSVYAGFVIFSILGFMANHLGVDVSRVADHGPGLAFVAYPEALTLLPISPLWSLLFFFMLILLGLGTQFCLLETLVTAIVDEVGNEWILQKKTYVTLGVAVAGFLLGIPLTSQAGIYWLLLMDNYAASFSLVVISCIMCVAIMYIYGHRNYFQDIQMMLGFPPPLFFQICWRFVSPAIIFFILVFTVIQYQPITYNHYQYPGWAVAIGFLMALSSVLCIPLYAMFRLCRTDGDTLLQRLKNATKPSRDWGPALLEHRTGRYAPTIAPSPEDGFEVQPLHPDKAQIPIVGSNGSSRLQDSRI

CCS(=O)(=O)NC1CN(c2ccc3c(c2)[C@@H](Cc2ccccc2)[C@@H](N2CCC2)CC3)C1 [Example 4, N-(1-((7S,8R)-7-(azetidin-1-yl)-8-benzyl-5,6,7,8-tetrahydronaphthalen-2-yl)azetidin-3-yl)ethanesulfonamide]
human mCl [1]: ≦5 L/h/Kg
Ki [2]: ≤ 0.1 µM

Cn1cnc(S(=O)(=O)NC2CCN(c3ccc4c(c3)[C@@H](Cc3ccccc3)[C@@H](N3CCC3)CC4)CC2)c1 [Example 11, N-(1-((7S,8R)-7-(azetidin-1-yl)-8-benzyl-5,6,7,8-tetrahydronaphthalen-2-yl)piperidin-4-yl)-1-methyl-1H-imidazole-4-sulfonamide]
human mCl [1]: ≦5 L/h/Kg
Ki [2]: ≤ 0.1 µM

Cn1cnc(S(=O)(=O)NC2CN(c3ccc4c(c3)[C@@H](Cc3ccccc3)[C@@H](N3CCC3)CC4)C2)c1 [Example 1, N-(1-((7S,8R)-7-(azetidin-1-yl)-8-benzyl-5,6,7,8-tetrahydronaphthalen-2-yl)azetidin-3-yl)-1-methyl-1H-imidazole-4-sulfonamide]
human mCl [1]: ≦5 L/h/Kg
Ki [2]: ≤ 0.01 µM

Cn1cnc(S(=O)(=O)N[C@H]2C[C@@H](c3ccc4c(c3)[C@@H](Cc3ccccc3)[C@@H](N3CCC3)CC4)C2)c1 [Example 13, N-((1 S,3s)-3-((7S,8R)-7-(azetidin-1-yl)-8-benzyl-5,6,7,8-tetrahydronaphthalen-2-yl)cyclobutyl)-1-methyl-1H-imidazole-4-sulfonamide]
human mCl [1]: ≦5 L/h/Kg
Ki [2]: ≤ 0.1 µM

Cn1cnc(S(=O)(=O)NC2CN(c3ccc4c(c3)[C@@H](Cc3ccccc3)[C@@H](N3CC5CC5C3)CC4)C2)c1 (stereo partly drawn) [Example 15, N-(1-((7S,8R)-8-benzyl-7-(3-azabicyclo[3.1.0]hexan-3-yl)-5,6,7,8-tetrahydronaphthalen-2-yl)azetidin-3-yl)-1-methyl-1H-imidazole-4-sulfonamide]
human mCl [1]: ≦5 L/h/Kg
Ki [2]: ≤ 0.1 µM

CCCS(=O)(=O)NC1CN(c2ccc3c(c2)[C@@H](Cc2ccccc2)[C@@H](N2CC4CC4C2)CC3)C1 (stereo partly drawn) [Example 17, N-(1-((7S,8R)-8-benzyl-7-(3-azabicyclo[3.1.0]hexan-3-yl)-5,6,7,8-tetrahydronaphthalen-2-yl)azetidin-3-yl)propane-1-sulfonamide]
human mCl [1]: ≦5 L/h/Kg
Ki [2]: ≤ 0.01 µM

CCCS(=O)(=O)NC1CN(c2ccc3c(c2)[C@@H](Cc2ccccc2)[C@@H](N2CCC2)CC3)C1 [Example 5, N-(1-((7S,8R)-7-(azetidin-1-yl)-8-benzyl-5,6,7,8-tetrahydronaphthalen-2-yl)azetidin-3-yl)propane-1-sulfonamide]
human mCl [1]: ≦5 L/h/Kg
Ki [2]: ≤ 0.01 µM

Cn1cc(S(=O)(=O)NC2CN(c3ccc4c(c3)[C@@H](Cc3ccccc3)[C@@H](N3CC5CC5C3)CC4)C2)nn1 (stereo partly drawn) [Example 16, N-(1-((7S,8R)-8-benzyl-7-(3-azabicyclo[3.1.0]hexan-3-yl)-5,6,7,8-tetrahydronaphthalen-2-yl)azetidin-3-yl)-1-methyl-1H-1,2,3-triazole-4-sulfonamide]
human mCl [1]: ≦5 L/h/Kg
Ki [2]: ≤ 0.01 µM

CCCS(=O)(=O)N[C@H]1CCN(c2ccc3c(c2)[C@@H](Cc2ccccc2)[C@@H](N2CCC2)CC3)C1=O [Example 14, N-((S)-1-((7S,8R)-7-(azetidin-1-yl)-8-benzyl-5,6,7,8-tetrahydronaphthalen-2-yl)-2-oxopyrrolidin-3-yl)propane-1-sulfonamide]
human mCl [1]: ≦5 L/h/Kg
Ki [2]: ≤ 0.1 µM

CCS(=O)(=O)NC1(C)CN(c2ccc3c(c2)[C@@H](Cc2ccccc2)[C@@H](N2CCC2)CC3)C1 [Example 8, N-(1-((7S,8R)-7-(azetidin-1-yl)-8-benzyl-5,6,7,8-tetrahydronaphthalen-2-yl)-3-methylazetidin-3-yl)ethanesulfonamide]
human mCl [1]: ≦5 L/h/Kg
Ki [2]: ≤ 10 µM

CS(=O)(=O)NC1CN(c2ccc3c(c2)[C@@H](Cc2ccccc2)[C@@H](N2CCC2)CC3)C1 [Example 3, N-(1-((7S,8R)-7-(azetidin-1-yl)-8-benzyl-5,6,7,8-tetrahydronaphthalen-2-yl)azetidin-3-yl)methanesulfonamide]
human mCl [1]: ≦5 L/h/Kg
Ki [2]: ≤ 1 µM

O=S(=O)(NC1CN(c2ccc3c(c2)[C@@H](Cc2ccccc2)[C@@H](N2CCC2)CC3)C1)c1ccc2c(c1)OC(F)(F)O2 [Example 6, N-(1-((7S,8R)-7-(azetidin-1-yl)-8-benzyl-5,6,7,8-tetrahydronaphthalen-2-yl)azetidin-3-yl)-2,2-difluorobenzo[d][1,3]dioxole-5-sulfonamide]
human mCl [1]: ≦500 L/h/Kg
Ki [2]: ≤ 10 µM

Cn1cnc(S(=O)(=O)N[C@@H]2CCN(c3ccc4c(c3)[C@@H](Cc3ccccc3)[C@@H](N3CCC3)CC4)C2)c1 [Example 9, N-((R)-1-((7S,8R)-7-(azetidin-1-yl)-8-benzyl-5,6,7,8-tetrahydronaphthalen-2-yl)pyrrolidin-3-yl)-1-methyl-1H-imidazole-4-sulfonamide]
human mCl [1]: ≦5 L/h/Kg
Ki [2]: ≤ 0.1 µM

Cn1cnc(S(=O)(=O)N[C@H]2C[C@H](c3ccc4c(c3)[C@@H](Cc3ccccc3)[C@@H](N3CCC3)CC4)C2)c1 [Example 12, N-((1R,3r)-3-((7S,8R)-7-(azetidin-1-yl)-8-benzyl-5,6,7,8-tetrahydronaphthalen-2-yl)cyclobutyl)-1-methyl-1H-imidazole-4-sulfonamide]
human mCl [1]: ≦5 L/h/Kg
Ki [2]: ≤ 0.01 µM

Cn1cnc(S(=O)(=O)N[C@H]2CCN(c3ccc4c(c3)[C@@H](Cc3ccccc3)[C@@H](N3CCC3)CC4)C2)c1 [Example 10, N-((S)-1-((7S,8R)-7-(azetidin-1-yl)-8-benzyl-5,6,7,8-tetrahydronaphthalen-2-yl)pyrrolidin-3-yl)-1-methyl-1H-imidazole-4-sulfonamide]
human mCl [1]: ≦5 L/h/Kg
Ki [2]: ≤ 1 µM

Cn1cnc(S(=O)(=O)NC2(C)CN(c3ccc4c(c3)[C@@H](Cc3ccccc3)[C@@H](N3CCC3)CC4)C2)c1 [Example 7, N-(1-((7S,8R)-7-(azetidin-1-yl)-8-benzyl-5,6,7,8-tetrahydronaphthalen-2-yl)-3-methylazetidin-3-yl)-1-methyl-1H-imidazole-4-sulfonamide]
human mCl [1]: ≦5 L/h/Kg
Ki [2]: ≤ 0.1 µM
